Data on two compounds can be found in publication PMC8410672 (Chemistry (Weinheim an der Bergstrasse, Germany), 2021).

Series [1] relates to clinical isolates of P. aeruginosa. The experiment in a line: MIC against clinical isolates from cystic fibrosis patients. In kind it is cell-based. Particulars: n=20 clinical isolates, CAMHB.
The test system of a further series is Balb/c mice. The experiment in a line: toxicity profile in mice, intraperitoneal. In kind it is in vivo, mouse. The conditions noted are these: Balb/c mice n=3, i.p.; very mild toxicity after 1 h, recovered after 24 h.
For series [2], the system named is P. aeruginosa (Schroeter) Migula (ATCC 27853). The experiment in a line: P. aeruginosa-induced bacterial peritonitis model. In kind it is in vivo, Balb/c mice. Particulars: 15 mg/kg i.p. single dose, n=10, 7 days, p <0.001.
The subject of series [3] is clinical isolates of methicillin-resistant S. aureus. The experiment in a line: MIC against clinical isolates from cystic fibrosis patients. In kind it is cell-based. The conditions noted are these: n=20 methicillin-resistant clinical isolates; CAMHB.

As for Colistin, the “P. aeruginosa MIC50” value in series [1] (30% MDR) is at most 0.2 µM. Besides, in series [1], the “P. aeruginosa MIC90” value was found to be 0.4 µM. In addition, the “well tolerated intraperitoneal dose (MTD)” value in the series on Balb/c mice amounted to 15 mg/kg. In addition, in series [2], the “survival hazard ratio [HR]” value was found to be 0.040.
As to `CN[C@H](CC(C)C)C(=O)N[C@H]1C(=O)N[C@@H](CC(N)=O)C(=O)N[C@H]2C(=O)N[C@H]3C(=O)N[C@H](C(=O)N[C@H](C(=O)O)c4cc(O)cc(O)c4-c4cc3ccc4O)[C@H](O)c3ccc(c(Cl)c3)Oc3cc2cc(c3O[C@@H]2O[C@H](CO)[C@@H](O)[C@H](O)[C@H]2O[C@H]2C[C@](C)(N)[C@H](O)[C@H](C)O2)Oc2ccc(cc2Cl)[C@H]1O` [Vancomycin], in series [3], the “S. aureus MICrange” value is 0.5 to 1.4 µM.
